The source of these data is PMC12524408 (International Journal of Molecular Sciences, 2025).

The nature of series [1]: PEG-AM plasma concentration, Study No. P170454. The format is in vivo. As to conditions: 1 nmol/kg single i.v.; mouse; fluorescence immunoassay. From the text:
Figure 4 Dose-dependent effects of intravenous PEG-AM administration in DSS-induced colitis (Study No. P170454). (a) Overview of the experimental design. Groups: vehicle (n = 10), PEG-AM 1 nmol/kg (n = 10), 5 nmol/kg (n = 10), 25 nmol/kg (n = 10). (b) Total inflammation scores on day 8. (c) Colon length. (d) Colon weight-to-length ratio. (e) PEG-AM plasma concentrations on day 8.
Colitis was induced with 3% (w/v) DSS (MW 5000) in drinking water for seven days. PEG-AM (1.0, 5.0, and 25 nmol/kg) or saline (control) was administered intravenously one day before DSS treatment. Each group included 10 mice. Stool consistency, bleeding, and body weight were evaluated on days −1, 0, 3, 5, and 7. A total inflammation score was calculated. Mice were anesthetized with 3% isoflurane (Zoetis Japan, Tokyo, Japan), and the colon was excised on day 7.

The subject of series [2] is RAMP1, RAMP2, RAMP3, CLR. Nature of the series: Gene expression of receptor components in distal colon, Study No. P180567. The format is in vivo, mouse. As to conditions: 25 nmol/kg i.v., qPCR, 2^-ΔΔCt, GAPDH normalization, vs control. The source says: Figure 5 Effect of 25 nmol/kg PEG-AM in DSS-induced colitis (Study No. P180567). (a) Overview of the experimental design. Groups: vehicle (n = 20), PEG-AM 25 nmol/kg (n = 20). (b) Total inflammation scores on day 8. ** p < 0.01, Mann–Whitney U test. (c) Bloody stool scores on day 8, *** p < 0.001, Mann–Whitney U test. (d) Colon length. (e) Colon weight-to-length ratio, ** p < 0.01, unpaired t-test. (f) PEG-AM plasma concentrations on day 8. (g–j) Fold changes in gene expression of RAMP1 (g), RAMP2 (h), RAMP3 (i), and CLR (j). * p < 0.05, unpaired t-test.
(§1) After measuring colon length and weight, distal colon tissue was collected, immersed in RNAlater (Thermo Fisher Scientific K.K.), and stored at −80 °C until RNA extraction. Total RNA was extracted using the RNeasy Micro Kit (Qiagen, Singapore) and quantified using a DeNovix DS-11 Microvolume Spectrophotometer. cDNA was synthesized from 2 μg of total RNA using a high-capacity cDNA Reverse Transcription Kit (Thermo Fisher Scientific K.K.). Quantitative PCR was performed using the StepOnePlus Real-Time PCR System (Applied Biosystems, Waltham, MA, USA) and TaqMan Gene Expression Assays for mouse RAMP1, RAMP2, RAMP3, CLR (CALCRL), and GAPDH (internal control). […]
All reactions were performed in duplicate. Relative expression levels were calculated using the 2^−ΔΔCt method with GAPDH normalization.
In general terms: Quantitative PCR measures a nucleic acid by following its amplification.

Series [3] relates to DSS-induced colitis. Nature of the series: Therapeutic effect of PEG-AM after onset of DSS colitis (Study No. P200487). The format is in vivo, mouse. The settings on record: vs control, n = 6. Here is the method: DSS was administered for five days to induce colitis, followed by the administration of PEG-AM or saline on day 5. DSS was replaced with water on day 6 to evaluate recovery. […] (a) Overview of the experimental design. Groups: vehicle (n = 6), PEG-AM 25 nmol/kg (n = 6), 250 nmol/kg (n = 6). (b) Time course of total inflammation scores after PEG-AM administration. (c) Colon length, * p < 0.05, one-way ANOVA followed by Dunnett’s multiple-comparisons test. ns, not significant. (d) Colon weight-to-length ratio, * p < 0.05, one-way ANOVA followed by Dunnett’s multiple-comparisons test. ns, not significant. (e) PEG-AM plasma concentrations on day 12. (f–i) Fold changes in gene expression of RAMP1 (f), RAMP2 (g), RAMP3 (h), and CLR (i). To evaluate the pharmacological effects of PEG-AM, three animal studies were conducted by the LSI Medience Corporation following the Animal Welfare Act and institutional approval. Seven-week-old male C57BL/6J JCL mice (CLEA Japan, Inc., Tokyo, Japan) were used in all studies and were housed under pathogen-free conditions. Colitis was induced with 2% (w/v) DSS (MW 36,000–50,000) for five days. On day 5, the mice were assigned to three groups and intravenously administered one of PEG-AM (25 or 250 nmol/kg) or saline. On day 6, DSS was replaced with water. Clinical symptoms were evaluated on days 5, 8, 10, and 12. The inflammation scores were calculated. Colons were collected on day 12 under isoflurane anesthesia.

The test system of series [4] is RAMP1, RAMP2, RAMP3, CLR. Nature of the series: Gene expression of receptor components in distal colon, Study No. P200487. The settings on record: 25 and 250 nmol/kg i.v., day 12, qPCR. The format is in vivo, mouse.
Source text: Figure 6 Therapeutic effects of PEG-AM administered after disease onset in DSS-induced colitis (Study No. P200487). (a) Overview of the experimental design. Groups: vehicle (n = 6), PEG-AM 25 nmol/kg (n = 6), 250 nmol/kg (n = 6). (b) Time course of total inflammation scores after PEG-AM administration. (c) Colon length, * p < 0.05, one-way ANOVA followed by Dunnett’s multiple-comparisons test. ns, not significant. (d) Colon weight-to-length ratio, * p < 0.05, one-way ANOVA followed by Dunnett’s multiple-comparisons test. ns, not significant. (e) PEG-AM plasma concentrations on day 12. (f–i) Fold changes in gene expression of RAMP1 (f), RAMP2 (g), RAMP3 (h), and CLR (i).
as §1

In the case of “40 kDa PEGylated adrenomedullin [PEG-AM]”, in series [1], the “PEG-AM plasma concentration on day 8” value is listed as “undetectable”. For the same substance, in series [2], the “Gene expression of receptor components (RAMP1, RAMP2, RAMP3, CLR)” value is on record as “no downregulation”. The “Colon weight per unit length” value in series [3] (250 nmol/kg i.v. on day 5 after DSS onset, day 12, p = 0.039, Dunnett's test) was “significantly lower”. The “Total inflammation scores over time” value in series [3] (25 or 250 nmol/kg i.v. on day 5 after 2% DSS (MW 36,000-50,000) for five days, days 5-12) is “did not significantly alter”. In addition, in series [3] (i.v. on day 5 after DSS onset, day 12, p = 0.014, one-way ANOVA with Dunnett's test, dose group not given), the Colon length result is listed as “significantly longer”. Besides, in series [4], the RAMP2 expression entry is “increased in a dose-dependent manner; however, the increase was not statistically significant” and the “Receptor component expression (RAMP1, RAMP2, RAMP3, CLR)” value is “No downregulation”.
